Test results taken from patent publication EP1488698A1, “Compositions for descreasing intracellular inositol trisphosphate concentration and uses thereof” (priority 1995, dated 1997).
Several values for one entry are separate records, joined by “and”; a condition that tells them apart may be missing. Identical values can stand only once.

How the values were obtained:
male F344 rats = test: Behavioral analysis after ICV infusion (quisqualate excitotoxicity model); format: in vivo; settings: for effective dose (to prevent or reverse quisqualate effects): pilot testing, the higher doses appeared to be more reliable; for number of convulsions or spasms: pretreatment with Psychosine (125 nmoles) or Lysosphingomyelin (125 nmoles and 150 nmoles) ICV 30 minutes before quisqualate 225 nmoles, n = 6 per group, Fig. 8; for convulsant behavior, compound alone: psychosine at 125 nmoles, lysosphingomyelin at 125 nmoles and 150 nmoles, ICV without quisqualate; for behavioral and histological changes caused by quisqualate: rats pretreated with 125 nmoles of the lysosphingolipid; for BEHAVIORAL RESPONSE: 30 minutes prior to quisqualate
Method: (§1) The animals used in this experiment were male F344 rats (Charles River Breeding Laboratories). The animals were housed individually, exposed to a 12-hour light-dark cycle, and allowed free access to food and water. The animals weighed approximately 250 g at the beginning of each experiment and were weighed daily. In addition, the animals were habituated to handling before each experiment.
(§2) Before administering various compounds, the animals were anesthetized with sodium pentobarbital (50 mg/kg, i.p.) and positioned in a sterotaxic instrument. A 26 gauge cannula was inserted into the cerebral ventricle at the following co-ordinates: 1.0 mm posterior to bregma, 1.5 mm lateral to the midline, and 4.0 mm below the dorsal surface of the neocortex. Cannulas were capped and fixed in place with dental cement. One week after cannulation, 10 µl of each of the treatment drugs was infused, ICV (i.e. into the ventricals of the brain), via a micropump at a rate of 10 µl/min. For this procedure, the animals were lightly restrained and unanesthetized. Following administration of the compound, the infusion cannula remained in position for one minute, after which the permanent in situ cannula was capped.
(§3) The compounds administered were obtained from a commercial supplier (Sigma Chemical Co., St. Louis, MO) and dissolved in saline prior to injection. These compounds included quisqualate (injected at doses ranging from 100 nmole/10 µl to 1 µmole/10 µl), lysocerebroside, and lysophingomyelin (which were injected at doses of 25 nmoles/10 µl to 150 nmoles/10 µl).
Pilot studies identified several specific behavioral measures that could be used to indicate excessive activation of the metabotropic receptor (see Table 3). […] The experiments that follow were based on an analysis of these behaviors over a two hour period after administration of the compounds of the invention. Behavioral observation was carried out by two trained observers, who worked independently of one another and who were blind to the experimental groups. […] Frequency and duration means were computed by subtracting pre-infusion means from post-infusion means.
The experiment began one week after ICV cannulation. […] Following the baseline observation period, animals received the first of two ICV infusions (all infusions were of a 10 µl volume that was administered over a 1 minute period). For the first five groups listed above, this consisted of saline (10 µl/minute), for the following 3 groups the infusions were psychosine at 125 nmoles, lysosphingomyelin at 125 nmoles, or lysosphingomyelin at 150 nmoles, respectively. Thirty minutes later, all animals received the second infusion which, for the first five groups listed above, consisted of saline, quisqualate at 225 nmoles, psychosine at 125 nmoles, lysosphingomyelin at 125 nmoles, and lysosphingomyelin at 150 nmoles respectively. […] Following the second infusion animals were returned to their cages, and observed continuously over the subsequent 2 hours.

hippocampal neurons = test: Histological analysis of brain (cresyl violet) seven days after ICV infusion; format: in vivo, rats; settings: pretreatment with psychosine 125 nmoles; quisqualate 225 nmoles ICV; Figs. 7A and 7B
Method: as §1, §2, §3
Seven days after the compounds were administered, animals were sacrificed by transcardial perfusion with neutralized, buffered 10% formalin-saline. Their brains were removed, post-fixed overnight in 10% formalin-saline, and sectioned along the coronal plane (into 50 µm thick sections) on a freezing microtome. The sections were stained with cresyl violet to determine the extent of cellular destruction. […]
Given that high concentrations of metabotropic receptors are located in the hippocampus, and that the hippocampus is particularly vulnerable to the effects of a variety of insults including ischemia and hypoxia, this region was examined for evidence of neuronal degeneration due to glutamate excitoxicity.

CCCCCCCCCCCCC/C=C/[C@@H](O)[C@@H](N)COP(=O)([O-])OCC[N+](C)(C)C [lysosphingomyelin, sphingosyl phosphorylcholine]
effective dose (to prevent or reverse quisqualate effects) (male F344 rats; ICV, rats): 125 nmol and 150 nmol
sedation (male F344 rats; Lysosphingomyelin 150 nmoles ICV, rats): mild sedation
behavioral or neurotoxic effects of the compounds (male F344 rats; doses as high as 125 nmoles per animal, ICV, rats): no behavioral or neurotoxic effects were observed
number of convulsions or spasms (male F344 rats): significantly (p<01) attenuated
convulsant behavior, compound alone (male F344 rats): displayed no convulsant behavior
duration of teeth chattering, akinesia and mobilization, compared with quisqualate alone (male F344 rats; quisqualate 225 nmoles and lysophingomyelin 150 nmoles ICV, Fig. 9): quisqualate alone spent significantly (p< .01) more time engaged in these behaviors
behavioral and histological changes caused by quisqualate (male F344 rats; ICV): absent

CCCCCCCCCCCCC/C=C/[C@@H](O)[C@@H](N)CO[C@@H]1O[C@H](CO)[C@H](O)[C@H](O)[C@H]1O [psychosine]
effective dose (to prevent or reverse quisqualate effects) (male F344 rats; ICV, rats): 125 nmol
BEHAVIORAL RESPONSE (male F344 rats; Psychosine 25 nmoles + Quisqualate 200 moles, ICV): Moderate convulsions, teeth chattering, akinesia and hyperactivity
BEHAVIORAL RESPONSE (male F344 rats; Psychosine 50 nmoles + Quisqualate 200 moles, ICV): Moderate convulsions, teeth chattering, akinesia and hyperactivity
BEHAVIORAL RESPONSE (male F344 rats; Psychosine 100 nmoles + Quisqualate 200 nmoles, ICV): Almost complete attenuation of Quisqualate response, some teeth chattering post-injection
BEHAVIORAL RESPONSE (male F344 rats; Psychosine 100 nmoles + Quisqualate 250 nmoles, ICV): Moderate convulsions, teeth chattering, akinesia. Quisqualate markedly reduced compared to typical Quisqualate response at this dose.
BEHAVIORAL RESPONSE (male F344 rats; Psychosine 125 nmoles + Quisqualate 225 nmoles, ICV): Complete attenuation of Quisqualate response
BEHAVIORAL RESPONSE (male F344 rats; Psychosine 150 nmoles + Quisqualate 250 nmoles, ICV): Almost complete attenuation of Quisqualate response
number of convulsions or spasms (male F344 rats): significantly (p<01) attenuated
BEHAVIORAL RESPONSE (male F344 rats; psychosine 125 moles + Quisqualate 200 moles, ICV): Complete attenuation of Quisqualate response
convulsant behavior, compound alone (male F344 rats): displayed no convulsant behavior
behavioral and histological changes caused by quisqualate (male F344 rats; ICV): absent
neuronal loss (CA1 pyramidal neurons) caused by quisqualate (hippocampal neurons): prevents the neuronal loss caused by quisqualate
